pIC50: −log10 of the molar value.
What follows are molecules tested on IL-1β cytokine output from THP-1s (assay: THP-1 AlphaLISA IL-1β cytokine assay). Conditions: Homo sapiens, THP-1, PMA-differentiated THP-1 cells, LPS 24 hr then Nigericin 1 hour; read-out: IL-1β (IC50).
Format: cell-based, human
Protocol: Measuring Inhibitory Effects on IL-1β and IL-6 Cytokine Output from THP-1s
The cytokine inhibition profiles of compounds of formula (IW-1) were determined in a differentiated THP-1 cell assay. All assays were performed in RPMI-1640 growth medium (Gibco), supplemented with 10% fetal bovine serum (FBS; Gibco), 1% penicillin-streptomycin and 1% sodium pyruvate unless specified otherwise. The IL-1β and IL-6 cytokine inhibition assays were each run in a background of differentiated THP-1 cells as described below. All reagents described were from Sigma-Aldrich unless specified otherwise. Compounds were prepared as 10 mM DMSO stocks.
THP-1 cells were expanded as a suspension up to 80% confluence in appropriate growth medium. Cells were harvested, suspended, and treated with an appropriate concentration of phorbol 12-myristate 13-acetate (PMA) over a 72 hr period (37° C./5% CO2).
Following 72 hrs of THP-1 cell incubation, cellular medium was removed and replaced with fresh growth media containing 1% of FBS. Working concentrations of compounds were prepared separately in 10% FBS treated growth medium and pre-incubated with the cells for 30 minutes (37° C./5% CO2). Following the 30 minute compound pre-incubation, THP-1s were treated with an appropriate concentration of LPS and the THP-1s were subsequently incubated for a 24 hr period (37° C./5% CO2). An appropriate final concentration of Nigericin was then dispensed into the THP-1 plates and incubated for 1 hour (37° C./5% CO2) before THP-1 supernatants were harvested and collected in separate polypropylene 96-well holding plates.
Reagents from each of the IL-1β and IL-6 commercial kits (Perkin Elmer) were prepared and run according to the manufacturer's instructions. Subsequently, fluorescence signal detection in a microplate reader was measured (EnVision® Multilabel Reader, Perkin Elmer).
Percentage inhibition was calculated per cytokine by normalising the sample data to the high and low controls used within each plate (+/−LPS respectively). Percentage inhibition was then plotted against compound concentration and the 50% inhibitory concentration (IC50) was determined from the resultant concentration-response curve.

Row | pIC50 | SMILES
1 | 4.66 | C=C(CC(=O)OC(C)c1cc(Cl)cc(Cl)c1)C(=O)OCC(=O)O (single isomer, unassigned; isomer 1) [Example 198, 2-((4-(1-(3,5-dichlorophenyl)ethoxy)-2-methylene-4-oxobutanoyl)oxy)acetic acid (Isomer 1)]
2 | 4.27 | C=C(CC(=O)OC1CCCCCCC1)C(=O)O[C@@H](C)[C@@H](NC(C)=O)C(=O)O (stereo in doubt) [Example 136, (2R,3S)-2-acetamido-3-((4-(cyclooctyloxy)-2-methylene-4-oxobutanoyl)oxy)butanoic acid]
3 | 4.79 | C=C(CC(=O)OCCCCCCCC)C(=O)OC1CCOCC1 [Example 26, 4-octyl 1-(tetrahydro-2H-pyran-4-yl) 2-methylenesuccinate]
4 | 5.38 | C=C(CC(=O)OC1CCCCC1)C(=O)OC1CN(C(C)=O)C1 [Example 74, 1-(1-acetylazetidin-3-yl) 4-cyclohexyl 2-methylenesuccinate]
5 | 5.39 | C=C(CC(=O)OCCCCCC)C(=O)OC1CCN(S(C)(=O)=O)CC1 [Example 76, 4-hexyl 1-(1-(methylsulfonyl)piperidin-4-yl) 2-methylenesuccinate]
6 | 4.84 | C=C(CC(=O)OCCCCCC)C(=O)OCCN1CCCC1=O [Example 77, 4-hexyl 1-(2-(2-oxopyrrolidin-1-yl)ethyl) 2-methylenesuccinate]
7 | 4.26 | C=C(CC(=O)OC1CCCCCCC1)C(=O)OCC(=O)N(C)CC(=O)O [Example 103, N-(2-((4-(cyclooctyloxy)-2-methylene-4-oxobutanoyl)oxy)acetyl)-N-methylglycine]
8 | 4.84 | C=C(CC(=O)OC1CCCCCCC1)C(=O)OCC(=O)N1CCC[C@H]1C(=O)O [Example 104, (2-((4-(cyclooctyloxy)-2-methylene-4-oxobutanoyl)oxy)acetyl)-L-proline]
9 | 4.55 | C=C(CC(=O)O[C@@H](C)CCCCCC)C(=O)OCC(=O)N(C)CC(=O)O [Example 105, (S)-N-methyl-N-(2-((2-methylene-4-(octan-2-yloxy)-4-oxobutanoyl)oxy)acetyl)glycine]
10 | 4.81 | C=C(CC(=O)O[C@@H](C)CCCCCC)C(=O)OCC(=O)NCC(=O)O [Example 106, (S)-(2-((2-methylene-4-(octan-2-yloxy)-4-oxobutanoyl)oxy)acetyl)glycine]
11 | 4.27 | C=C(CC(=O)OC1CCCCC1)C(=O)OC(C(=O)O)C(F)(F)F (centres unmarked) [Example 121, 2-((4-(cyclohexyloxy)-2-methylene-4-oxobutanoyl)oxy)-3,3,3-trifluoropropanoic acid]
12 | 4.35 | C=C(CC(=O)OC1CCCCC1)C(=O)O[C@@H](C(=O)O)c1ccccc1 [Example 127, (R)-2-((4-(cyclohexyloxy)-2-methylene-4-oxobutanoyl)oxy)-2-phenylacetic acid]
13 | 5.36 | C=C(CC(=O)OC1CCCCCCC1)C(=O)OCC(C)(C)S(=O)(=O)c1cccc(Cl)c1 [Example 131, 1-(2-((3-chlorophenyl)sulfonyl)-2-methylpropyl) 4-cyclooctyl 2-methylenesuccinate]
14 | 5.37 | C=C(CC(=O)OC1CCCCCCC1)C(=O)OCC(C)(C)S(C)(=O)=O [Example 132, 4-cyclooctyl 1-(2-methyl-2-(methylsulfonyl)propyl) 2-methylenesuccinate]
15 | 5.11 | C=C(CC(=O)O[C@H](C)CCCCCC)C(=O)OC(C)Cc1nnn[nH]1 (stereo partly drawn) [Example 140, 1-(1-(1H-tetrazol-5-yl)propan-2-yl) 4-((R)-octan-2-yl) 2-methylenesuccinate]
16 | 5.19 | C=C(CC(=O)O[C@@H](C)CCCCCC)C(=O)OC(C)Cc1nnn[nH]1 (stereo partly drawn) [Example 141, 1-(1-(1H-tetrazol-5-yl)propan-2-yl) 4-((S)-octan-2-yl) 2-methylenesuccinate]

Row | pIC50 | SMILES
17 | 5.21 | C=C(CC(=O)OC1CCCCC1)C(=O)OCc1nnn(C)n1 [Example 142, 4-cyclohexyl 1-((2-methyl-2H-tetrazol-5-yl)methyl) 2-methylenesuccinate]
18 | 5.70 | C=C(CC(=O)OC1CCCCC1)C(=O)OCc1nnnn1C [Example 143, 4-cyclohexyl 1-((1-methyl-1H-tetrazol-5-yl)methyl) 2-methylenesuccinate]
19 | 5.07 | C=C(CC(=O)OC(CC)CCCCC)C(=O)OCC(=O)O (centres unmarked) [Example 146, 2-(2-methylene-4-(octan-3-yloxy)-4-oxobutanoyloxy)acetic acid]
20 | 4.87 | C=C(CC(=O)OC(CCC)CCCC)C(=O)OCC(=O)O (centres unmarked) [Example 147, 2-(2-methylene-4-(octan-4-yloxy)-4-oxobutanoyloxy)acetic acid]
21 | 4.53 | C=C(CC(=O)OC(CCC)CCC)C(=O)OCC(=O)O [Example 148, 2-((4-(heptan-4-yloxy)-2-methylene-4-oxobutanoyl)oxy)acetic acid]
22 | 4.92 | C=C(CC(=O)OC1C2CC3CC(C2)CC1C3)C(=O)OCC(=O)O (centres unmarked) [Example 149, 2-((4-((adamantan-2-yl)oxy)-2-methylene-4-oxobutanoyl)oxy)acetic acid]
23 | 4.93 | C=C(CC(=O)OC(C)C1CCCCC1)C(=O)OCC(=O)O (centres unmarked) [Example 150, 2-((4-(1-cyclohexylethoxy)-2-methylene-4-oxobutanoyl)oxy)acetic acid]
24 | 4.99 | C=C(CC(=O)OC(C)C1CCCCCC1)C(=O)OCC(=O)O (centres unmarked) [Example 151, 2-((4-(1-cycloheptylethoxy)-2-methylene-4-oxobutanoyl)oxy)acetic acid]
25 | 4.99 | C=C(CC(=O)OC1CC2(CCCC2)C1)C(=O)OCC(=O)O [Example 152, 2-(2-methylene-4-oxo-4-(spiro[3.4]octan-2-yloxy)butanoyloxy)acetic acid]
26 | 5.15 | C=C(CC(=O)OC1CC2(CCCCC2)C1)C(=O)OCC(=O)O [Example 153, 2-(2-methylene-4-oxo-4-(spiro[3.5]nonan-2-yloxy)butanoyloxy)acetic acid]
27 | 5.08 | C=C(CC(=O)OC1CCC2(CCC2)CC1)C(=O)OCC(=O)O [Example 154, 2-(2-methylene-4-oxo-4-(spiro[3.5]nonan-7-yloxy)butanoyloxy)acetic acid]
28 | 4.78 | C=C(CC(=O)OC1CCCCC1(C)C)C(=O)OCC(=O)O (centres unmarked) [Example 155, 2-((4-((2,2-dimethylcyclohexyl)oxy)-2-methylene-4-oxobutanoyl)oxy)acetic acid]
29 | 4.17 | C=C(CC(=O)O[C@@H](C)CCCCCC)C(=O)OC(c1nn[nH]n1)C1CC1 (stereo partly drawn) [Example 166, 1-(cyclopropyl(1H-tetrazol-5-yl)methyl) 4-((S)-octan-2-yl) 2-methylenesuccinate]
30 | 4.31 | C=C(C(=O)OCC(=O)O)C(C)C(=O)OC1CCCCCCC1 (centres unmarked) [Example 168, 2-((4-(cyclooctyloxy)-3-methyl-2-methylene-4-oxobutanoyl)oxy)acetic acid]
31 | 4.56 | C=C(CC(=O)O[C@H](C)CCCCC)C(=O)OCC(=O)O [Example 173, (R)-2-((4-(heptan-2-yloxy)-2-methylene-4-oxobutanoyl)oxy)acetic acid]
32 | 4.96 | C=C(CC(=O)OC(C)CCCCCCC)C(=O)OCC(=O)O (centres unmarked) [Example 174, 2-((2-methylene-4-(nonan-2-yloxy)-4-oxobutanoyl)oxy)acetic acid]

Same assay, conditions: Homo sapiens, THP-1, read-out: IL-1β (IC50)

Row | SMILES | pIC50
33 | C=C(CC(=O)OC1CCCCC1)C(=O)OC/C=C/C(=O)O [Example 123, (E)-4-((4-(cyclohexyloxy)-2-methylene-4-oxobutanoyl)oxy)but-2-enoic acid] | 4.71
34 | C=C(CC(=O)OCC(=O)O)C(=O)OCCS(=O)(=O)c1cccc(Cl)c1 [Example 126, 2-((3-((2-((3-chlorophenyl)sulfonyl)ethoxy)carbonyl)but-3-enoyl)oxy)acetic acid] | 6.15

Same assay, conditions: Homo sapiens; PMA-differentiated THP-1 cells, LPS 24 hr then Nigericin 1 hour; read-out: IL-1β (IC50)

Row | SMILES | pIC50
35 | C=C(CC(=O)OC1CCCCC1)C(=O)OCCS(=O)(=O)CCC(=O)O [Example 124, 3-((2-((4-(cyclohexyloxy)-2-methylene-4-oxobutanoyl)oxy)ethyl)sulfonyl)propanoic acid] | 4.28
36 | C=C(CC(=O)OC1CCCCC1)C(=O)OC1CCCCC1 [Example 167, dicyclohexyl 2-methylenesuccinate] | 4.54
37 | C=C(C(=O)OCC(=O)O)C(OC)C(=O)OC1CCCCCCC1 (centres unmarked) [Example 171, 2-((4-(cyclooctyloxy)-3-methoxy-2-methylene-4-oxobutanoyl)oxy)acetic Acid] | 4.66

Same assay, conditions: PMA-differentiated THP-1 cells, LPS 24 hr then Nigericin 1 hour; read-out: IL-1β (IC50)

Row | pIC50 | SMILES
38 | 4.74 | C=C(CC(=O)OC(C)c1cc(Cl)cc(Cl)c1)C(=O)OCC(=O)O (single isomer, unassigned; isomer 2) [Example 199, 2-((4-(1-(3,5-dichlorophenyl)ethoxy)-2-methylene-4-oxobutanoyl)oxy)acetic acid (Isomer 2)]
